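Five concentrations, 48 hours, 96-well plates. At the GI50, growth is halved.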 Active and inactive are the calls of the source. No stated cut-off is given here; in the data, active = GI50 up to about 1.1 µM and inactive = higher.
How the values were obtained:
Assay in all cases: NCI anticancer screen, dose series, 48 h
SK-MEL-2 = test system: SK-MEL-2
SNB-19 = test system: SNB-19
LOX IMVI = test system: LOX IMVI
HT-29 = test system: HT-29
DU-145 = test system: DU-145
TK-10 = test system: TK-10
T47D = test system: T47D
HOP-62 = test system: HOP-62
OVCAR-8 = test system: OVCAR-8
CAKI-1 = test system: CAKI-1
NCI-H23 = test system: NCI-H23
EKVX = test system: EKVX
SR = test system: SR
OVCAR-5 = test system: OVCAR-5
UACC-257 = test system: UACC-257
A549 = test system: A549
M14 = test system: M14
SK-OV-3 = test system: SK-OV-3
OVCAR-4 = test system: OVCAR-4
SN12C = test system: SN12C

Measured: GI50

CS(=O)(=O)c1ccc(C(=O)O[C@@H]2C(=O)N3CC[C@H]4OC(O)[C@@H]2[C@H]43)cc1 (stereo partly specified)
inactive: SK-MEL-2 > 100 µM | SNB-19 > 100 µM | LOX IMVI > 100 µM | HT-29 > 100 µM | DU-145 > 100 µM | TK-10 > 100 µM | T47D > 100 µM | HOP-62 > 100 µM | OVCAR-8 > 100 µM | CAKI-1 > 100 µM | NCI-H23 > 100 µM | EKVX > 100 µM | SR > 100 µM | OVCAR-5 > 100 µM | UACC-257 > 100 µM | A549 > 100 µM | M14 > 100 µM | SK-OV-3 > 100 µM | OVCAR-4 > 100 µM

CCOP(=O)(OCC)/C(C#N)=C/c1ccccn1
inactive: SNB-19 > 100 µM | LOX IMVI > 100 µM | SN12C > 100 µM | HT-29 > 100 µM | DU-145 > 100 µM | TK-10 > 100 µM | T47D > 100 µM | HOP-62 > 100 µM | OVCAR-8 > 100 µM | CAKI-1 > 100 µM | NCI-H23 > 100 µM | EKVX > 100 µM | SR > 100 µM | OVCAR-5 > 100 µM | UACC-257 > 100 µM | A549 > 100 µM | M14 > 100 µM | SK-OV-3 > 100 µM | OVCAR-4 > 100 µM

CC1(COS(=O)(=O)OCC2(C)COS(=O)(=O)OC2)COS(=O)(=O)OC1
inactive: SK-MEL-2 > 55.6 µM | SNB-19 > 60.7 µM | LOX IMVI > 40.5 µM | HT-29 > 32.6 µM | DU-145 > 36.5 µM | TK-10 > 74.8 µM | T47D > 20.9 µM | HOP-62 62.2 µM | OVCAR-8 > 48.3 µM | CAKI-1 > 100 µM | NCI-H23 > 25.8 µM | EKVX > 71.1 µM | SR > 24.9 µM | OVCAR-5 > 100 µM | UACC-257 > 75 µM | A549 > 28.8 µM | M14 > 51.4 µM | SK-OV-3 > 100 µM | OVCAR-4 > 60.8 µM

COc1ccc(/N=N/N2CCCC2)cc1
inactive: SK-MEL-2 > 100 µM | SNB-19 > 100 µM | LOX IMVI 16.1 µM | SN12C 21.7 µM | HT-29 40.2 µM | DU-145 > 100 µM | TK-10 57.1 µM | T47D 18.3 µM | HOP-62 > 100 µM | CAKI-1 16.2 µM | NCI-H23 61.7 µM | EKVX 19.7 µM | SR 48.3 µM | OVCAR-5 83.9 µM | UACC-257 > 100 µM | A549 > 100 µM | M14 44.8 µM | SK-OV-3 > 100 µM | OVCAR-4 18.6 µM
